The target of test [1] is T1, SERT (Homo sapiens, UniProt P31645).
T1 construct: from tissue; host or cells: living patients' brain: hypothalamus, thalamus, pons (extrastriatal regions)
The experiment in a line: [123I]FP-CIT SPECT ROI analysis, extrastriatal (hypothalamus) binding ratios. Format: in vivo. The note with it: without SSRI users, reference cerebellum. The text has this: Diagnoses of patients were verified using their medical records. […]
One-way ANOVA tests were used where appropriate. Post-hoc testing was done with Hochberg GT2 correction. An alpha level of 0.05 was used.

For test [2], the target named is serotonin transporter (SERT) (Homo sapiens, UniProt P31645). The note with it: Abi-Dargham et al. 1996; cited from earlier work.
Test [3] concerns the target T1, SERT. The note with it: cited from earlier work.
Test [4] concerns the target dopamine transporter (DAT) (Homo sapiens, UniProt Q01959). The note with it: presynaptic membrane of dopaminergic neurons; cited from earlier work.
Test [5] addresses DAT (Homo sapiens, UniProt Q01959). The note with it: without SSRI users, reference cerebellum. From the text: For this retrospective study, a selection was made from a database of patients diagnosed with either PD, MSA or PSP and for whom a [^123I]FP-CIT-SPECT scan was available. Diagnoses of patients were verified using their medical records. Patients no longer receiving treatment or clinical follow-up were approached by letter and diagnoses were retrieved from their current attending neurologist. This procedure was approved by the local Medical Ethics Committee of the VUmc and all patients provided written informed consent. […] Prior to analysis of [^123I]FP-CIT-SPECT binding ratios (BR), MSA and PSP patients were manually age and gender-matched with 30 PD patients from a research database.
All patients received oral potassium perchlorate to block thyroid uptake of free radioactive iodide. [^123I]FP-CIT was injected intravenously 3 hours before image acquisition at an approximate dose of 185 MBq (specific activity >185 MBq/nmol; radiochemical purity >99%). Subjects were imaged using a dual-head gamma camera (E.Cam; Siemens. Munich. Germany) with a fan-beam collimator. 60×30 second views per head over a 180° orbit on a 128×128 pixel matrix were acquired resulting in a total imaging time of 30 minutes. Image reconstruction was performed using a filtered back projection with a Butterworth filter (order 8. cut-off 0.6 cycles/cm; voxel size: 3.9 mm^3 after reconstruction). Scans were reoriented manually to ensure that left and right striatum were aligned.
ROIs were defined for the DAT-rich caudate nucleus and the SERT-rich thalamus from the automated anatomical labelling (AAL) atlas; the DAT-rich posterior putamen was bilaterally based on the AAL atlas as described elsewhere (Vriend, C. et al. 2014 Mov Disord; 29: 904-11) the SERT-rich pons ROI was based on the Talairach Daemon (TD) Lobes atlas; and the SERT-rich hypothalamus ROI was based on the TD Brodmann area+atlas and 2× dilated. All of these ROIs are implemented in the WFU Pickatlas 3.0 (Wake Forest University, Winston-Salem, N.C., USA).
Non-specific [^123I]FP-CIT binding in the cerebellum was used as a reference (REF) (WFU Pickatlas, AAL atlas; bilateral Crus 2), because the cerebellum is relatively devoid of DAT and SERT. The ratio of specific to non-specific binding (BR), was calculated in Statistical Parametric Mapping Software version 8 (SPM8; Wellcome Trust Centre for Neuroimaging. London. UK) by: [(ROI−REF)/REF], and used as the outcome measure.
Patient analyses were grouped by diagnosis (PD; MSA-P; MSA-C; PSP). MSA was split, since a difference is expected between DAT binding in MSA-P and MSA-C (Munoz E., et al. 2011 J Neurol; 258: 2248-2253).
For the ROI analysis, normality of data was assessed by plotting histograms, examining Q-Q plots and Kolmogorov-Smirnov test for normality. One-way ANOVA tests were used where appropriate. Post-hoc testing was done with Hochberg GT2 correction. An alpha level of 0.05 was used.
ROI analysis in groups without SSRI users (total group n=48: MSA-C=7; MSA-P=6; PSP=10; PD=25)

The target in test [6] is T1, SERT. The experiment in a line: Voxel-based analysis of [123I]FP-CIT SPECT, extrastriatal binding. The note with it: groups without SSRI users. Format: in vivo. The protocol: All voxels in the [^123I]FP-CIT SPECT scan were adjusted by the mean binding in the cerebellar reference region according to: [(voxel−REF)/REF]. Voxel-based between-group analyses were performed in SPM8 and explicitly masked for the relevant ROI, using the same masks as the ROI analysis. Statistical threshold was set to P<0.05, Family-Wise Error (FWE) corrected for multiple comparisons, Ke>0. Age was included as nuisance covariate in all analyses.
Masks were based on the Automated anatomical labeling (AAL) atlas and created with the Wake-Forest University PickAtlas tool 3.0. Finally, the results of groups on SSRIs versus not being on a SSRI while scanned were compared with a ROI analysis.
Voxel-Based, Groups without SSRI Users, Extrastriatal Binding

The text below walks through data of patent US10980899B2, “Differential diagnosis” (GE Healthcare Limited, priority 2016, dated 2021).

The structures appear in SMILES notation. Like-named read-outs stand apart in the source and are kept apart here.

T1 sequence (P31645 whole entry): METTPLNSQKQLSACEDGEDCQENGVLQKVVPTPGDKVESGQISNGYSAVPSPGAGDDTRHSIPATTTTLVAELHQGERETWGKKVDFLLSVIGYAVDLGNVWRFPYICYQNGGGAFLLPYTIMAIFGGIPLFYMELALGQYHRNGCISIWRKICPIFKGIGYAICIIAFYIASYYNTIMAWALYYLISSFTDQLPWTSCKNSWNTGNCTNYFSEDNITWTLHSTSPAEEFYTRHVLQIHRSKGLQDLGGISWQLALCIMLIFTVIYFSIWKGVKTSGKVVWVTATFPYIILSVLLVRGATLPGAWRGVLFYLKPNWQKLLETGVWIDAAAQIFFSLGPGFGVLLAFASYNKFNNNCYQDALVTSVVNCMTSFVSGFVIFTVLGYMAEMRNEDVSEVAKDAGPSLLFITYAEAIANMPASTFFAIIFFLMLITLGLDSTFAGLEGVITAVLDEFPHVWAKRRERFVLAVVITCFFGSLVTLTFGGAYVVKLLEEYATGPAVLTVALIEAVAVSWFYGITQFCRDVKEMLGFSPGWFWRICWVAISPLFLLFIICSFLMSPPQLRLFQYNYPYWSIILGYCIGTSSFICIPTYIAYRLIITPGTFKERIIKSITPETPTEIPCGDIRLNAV
DAT, sequence (Q01959 whole entry): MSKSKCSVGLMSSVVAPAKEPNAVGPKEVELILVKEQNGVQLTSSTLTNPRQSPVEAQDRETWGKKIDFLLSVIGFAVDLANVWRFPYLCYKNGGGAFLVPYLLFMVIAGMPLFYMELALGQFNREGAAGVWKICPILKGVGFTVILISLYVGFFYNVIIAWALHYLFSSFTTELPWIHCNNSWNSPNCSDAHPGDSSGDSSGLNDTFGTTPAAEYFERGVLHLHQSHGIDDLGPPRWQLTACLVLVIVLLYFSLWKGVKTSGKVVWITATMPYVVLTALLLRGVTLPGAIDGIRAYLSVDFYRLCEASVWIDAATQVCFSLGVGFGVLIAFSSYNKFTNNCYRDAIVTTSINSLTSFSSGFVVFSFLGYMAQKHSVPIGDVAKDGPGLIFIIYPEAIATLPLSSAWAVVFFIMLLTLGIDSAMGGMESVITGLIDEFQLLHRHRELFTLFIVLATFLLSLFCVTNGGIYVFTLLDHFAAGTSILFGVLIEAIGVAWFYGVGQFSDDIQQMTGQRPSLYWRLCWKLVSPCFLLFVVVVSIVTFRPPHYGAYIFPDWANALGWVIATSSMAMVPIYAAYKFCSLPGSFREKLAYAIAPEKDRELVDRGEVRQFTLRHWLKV
serotonin transporter (SERT), sequence (P31645 whole entry, species assumed): as the sequence (P31645 whole entry) above
dopamine transporter (DAT), sequence (Q01959 whole entry, species assumed): as the sequence (Q01959 whole entry) above

`COC(=O)[C@H]1[C@@H](c2ccc([123I])cc2)C[C@@H]2CC[C@H]1N2CCCF` [[^123I]FP-CIT, [^123I]N-w-fluoropropyl-2β-carbomethoxy-3β-(4-iodophenyl) nortropane]: the “mean hypothalamic [123I]FP-CIT binding ratio” value in test [1] (MSA-C patients) amounted to 0.78; in test [1] (MSA-P patients), 0.45; in test [1] (PD patients) it was 0.67; in test [1] (PSP patients), 0.47. Moreover, the “affinity for the serotonin transporter (SERT)” value in test [2] was “modest affinity”. Besides, the “hypothalamus binding, MSA-P and PSP vs PD” value in test [3] (Joling et al. 2016) was “lower binding in the hypothalamus in MSA-P and PSP patients than in PD patients”. In test [3] (Roselli et al. 2010), the “midbrain binding, PSP vs PD” value was “lower in PSP patients than in PD patients”. Further, the “affinity to the dopamine transporter (DAT)” value in test [4] was “high affinity”. Besides, the “mean [123I]FP-CIT binding ratio, left caudate” value is recorded as 1.99 in test [5] (MSA-C patients), 1.87 in test [5] (PD patients) and 1.28 in test [5] (PSP patients). Besides, the “mean [123I]FP-CIT binding ratio, left posterior putamen” value in test [5] (MSA-C patients) worked out at 2.12; in test [5] (MSA-P patients), 1.36; in test [5] (PD patients), 1.58; in test [5] (PSP patients), 1.29. Moreover, the results for the “mean [123I]FP-CIT binding ratio, right caudate” value in test [5] (MSA-C patients), in test [5] (PD patients) and in test [5] (PSP patients) were 2.16, 1.92 and 1.39, respectively. Besides, the “mean [123I]FP-CIT binding ratio, right posterior putamen” value in test [5] (MSA-C patients) turned out to be 1.95; in test [5] (MSA-P patients), 1.19. The “hypothalamus binding ratios, between-group comparison (voxel-based)” value in test [6] (MSA-C vs PSP) is “higher binding ratios in hypothalamus in MSA-C than in PSP”. Further, the “hypothalamus binding, between-group comparison (voxel-based)” value in test [6] (PD vs MSA-P or PSP) is “statistically significantly higher in PD than in MSA-P or PSP”.
